One assay has as its target FGFR3 (h) (Homo sapiens, UniProt P22607). In words: FGFR3 (enzymatic assay), TR-FRET. The note with it: average values if tested multiple times, read-out: FGFR 3 pIC50 (converted). Type of assay: biochemical. The text has this: Time-Resolved Fluorescence Resonance Energy Transfer (TR-FRET) signal (ex340 nm.
(In general: Time-resolved FRET reads energy transfer from a long-lived donor to a nearby acceptor.)

The next assay has as its target FGFR4 (h) (Homo sapiens, UniProt P22455). The assay can be described thus: FGFR4 (enzymatic assay), TR-FRET. Type of assay: biochemical. The following applies: FGFR 4 pIC50, enzymatic assay; average values if tested multiple times.
For assay [1], the target named is Ba/F3-FGFR4-transfected cells (Homo sapiens, UniProt P22455). In words: Ba/F3-FGFR4 cellular proliferation assay, Alamar Blue. Type of assay: cell-based. The method, then: Ba/F3-FGFR4 (Cellular Proliferation Assay)
(§1) In a 384 well plate, 100 n1 of compound dilution in DMSO was sprayed before adding 50 μl cell culture medium (phenol red free RPMI-1640, 10% FBS, 2 mM L-Glutamine and 50 μg/ml Gentamycin) containing 20000 cells per well of Ba/F3-FGFR4-transfected cells. Cells were put in an incubator at 37° C. and 5% CO2. After 24 hours, 10 μl of Alamar Blue solution (0.5 mM K3Fe(CN)6, 0.5 mM K4Fe(CN)6, 0.15 mM Resazurin and 100 mM Phosphate Buffer) was added to the wells, incubated for 4 hours at 37° C. and 5% CO2 before RFU's (Relative Fluorescence Units) (ex. 540 nm., em. 590 nm.) were measured in a fluororescence plate reader.
For orientation: The colour change of resazurin is a common sign of viable cells or microbes.

In another assay the target is FGFR2 (h) (Homo sapiens, UniProt P21802). The assay can be described thus: FGFR2 (enzymatic assay), TR-FRET. Type of assay: biochemical. The following applies: average values if tested multiple times. The procedure: In a final reaction volume of 30 μL, FGFR2 (h) (150 ng/ml) was incubated with 50 mM HEPES pH 7.5, 6 mM MnCl2, 1 mM DTT, 0.1 mM Na3VO4, 0.01% Triton-X-100, 500 nM Btn-Flt3 and 0.4 μM ATP in the presence of compound (1% DMSO final).

In assay [2] the test system is Ba/F3-FGFR3-transfected cells. The assay can be described thus: Ba/F3-FGFR3 (plus IL3) cellular proliferation assay, counterscreen with 10 ng/ml murine IL3. Type of assay: cell-based. The note with it: read-out: BAF3-FGFR3 (PLUS IL3) pIC50 (converted). The procedure: (§2) Ba/F3-FGFR3 (Minus IL3 or Plus IL3) (Cellular Proliferation Assay)
as §1, with “nl” for “n1”, “Ba/F3-FGFR3-transfected” for “Ba/F3-FGFR4-transfected”
(§3) As a counterscreen the same experiment was performed in the presence of 10 ng/ml murine IL3.
For orientation: Counterscreens check selectivity or assay interference.

In assay [3] the target is T1, Ba/F3-KDR-transfected cells (Homo sapiens, UniProt P35968).
T1 construct: BAF3-KDR (MIN IL3) pIC50; other: minus IL3
In words: Ba/F3-KDR (minus IL3) cellular proliferation assay, Alamar Blue. Type of assay: cell-based. The method, then: Ba/F3-KDR (Minus IL3 or Plus IL3) (Cellular Proliferation Assay)
as §1, with “Ba/F3-KDR-transfected” for “Ba/F3-FGFR4-transfected”, “reader. […]” for “reader.”

The target of assay [4] is T2, Ba/F3-FGFR1-transfected cells (Homo sapiens, UniProt P11362).
T2 construct: BAF3-FGFR1 (MIN IL3) pIC50; other: minus IL3
In words: Ba/F3-FGFR1 (minus IL3) cellular proliferation assay, Alamar Blue. Type of assay: cell-based. The procedure: (§4) Ba/F3-FGFR1 (Minus IL3 or Plus IL3) (Cellular Proliferation Assay)
as §1, with “nl” for “n1”, “Ba/F3-FGFR1-transfected” for “Ba/F3-FGFR4-transfected”

Assay [5] relates to Ba/F3-FGFR1-transfected cells. The assay can be described thus: Ba/F3-FGFR1 (plus IL3) cellular proliferation assay, counterscreen with 10 ng/ml murine IL3. Type of assay: cell-based. The note with it: read-out: BAF3-FGFR1 (PLUS IL3) pIC50 (converted). The method, then: as §4
as §1, with “nl” for “n1”, “Ba/F3-FGFR1-transfected” for “Ba/F3-FGFR4-transfected”
as §3

The target in another assay is KDR (h) (Homo sapiens, UniProt P35968). The assay can be described thus: KDR (VEGFR2) (enzymatic assay), TR-FRET. The note with it: average values if tested multiple times, read-out: VEGFR 2 (KDR) pIC50 (converted). Type of assay: biochemical. The procedure: KDR (VEGFR2) (Enzymatic Assay)
In a final reaction volume of 30 μL, KDR (h) (150 ng/ml) was incubated with 50 mM HEPES pH 7.5, 6 mM MnCl2, 1 mM DTT, 0.1 mM Na3VO4, 0.01% Triton-X-100, 500 nM Btn-Flt3 and 3 μM ATP in the presence of compound (1% DMSO final). After incubation for 120 minutes at room temperature the reaction was stopped with 2.27 nM EU-anti P-Tyr, 7 mM EDTA, 31.25 nM SA-XL-665 and 0.02% BSA which was present for 60 minutes at room temperature. Time-Resolved Fluorescence Resonance Energy Transfer (TR-FRET) signal (ex340 nm. Em 620 nm, em 655 nm) was measured afterwards and results are expressed in RFU (Relative Fluorescence Units).

Assay [6] concerns the target T3, Ba/F3-FGFR3-transfected cells (Homo sapiens, UniProt P22607).
T3 construct: BAF3-FGFR3 (MIN IL3) pIC50; other: minus IL3
In words: Ba/F3-FGFR3 (minus IL3) cellular proliferation assay, Alamar Blue. Type of assay: cell-based. The procedure:
as §2
as §1, with “nl” for “n1”, “Ba/F3-FGFR3-transfected” for “Ba/F3-FGFR4-transfected”, “reader. […]” for “reader.”

In another assay the target is FGFR1 (h) (Homo sapiens, UniProt P11362). The assay can be described thus: FGFR1 (enzymatic assay), TR-FRET. Type of assay: biochemical. The note with it: average values if tested multiple times, read-out: FGFR 1 pIC50 (converted).
Setting [7] is: enzymatic assay, read-out: FGFR 2 pIC50 (converted).
[8] abbreviates: plus IL3 (10 ng/ml murine IL3, counterscreen).

Read-outs that look alike come from different tables or passages of the source.

Chain of FGFR3 (h) (P22607 23-806): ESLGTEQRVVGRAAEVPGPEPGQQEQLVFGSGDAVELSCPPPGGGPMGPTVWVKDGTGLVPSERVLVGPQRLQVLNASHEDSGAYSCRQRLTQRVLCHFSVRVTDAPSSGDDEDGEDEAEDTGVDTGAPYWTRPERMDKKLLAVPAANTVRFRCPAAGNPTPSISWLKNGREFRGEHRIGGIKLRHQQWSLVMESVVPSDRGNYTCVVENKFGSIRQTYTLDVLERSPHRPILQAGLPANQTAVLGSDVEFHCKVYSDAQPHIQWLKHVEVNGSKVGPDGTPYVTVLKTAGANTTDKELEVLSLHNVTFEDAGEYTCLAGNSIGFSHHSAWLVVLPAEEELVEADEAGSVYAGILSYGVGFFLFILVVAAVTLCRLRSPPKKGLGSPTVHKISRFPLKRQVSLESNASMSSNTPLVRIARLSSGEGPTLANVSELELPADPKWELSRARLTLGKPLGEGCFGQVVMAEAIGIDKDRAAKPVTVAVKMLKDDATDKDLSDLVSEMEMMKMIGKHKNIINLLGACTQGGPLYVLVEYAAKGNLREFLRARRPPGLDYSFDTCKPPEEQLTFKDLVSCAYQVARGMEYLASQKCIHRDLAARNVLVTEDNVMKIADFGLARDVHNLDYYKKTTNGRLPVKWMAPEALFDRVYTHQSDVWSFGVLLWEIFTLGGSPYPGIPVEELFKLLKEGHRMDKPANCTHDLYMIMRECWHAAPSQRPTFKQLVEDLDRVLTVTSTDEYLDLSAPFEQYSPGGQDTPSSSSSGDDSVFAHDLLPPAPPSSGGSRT
Chain of Ba/F3-FGFR4-transfected cells (P22455 whole entry, change not shown): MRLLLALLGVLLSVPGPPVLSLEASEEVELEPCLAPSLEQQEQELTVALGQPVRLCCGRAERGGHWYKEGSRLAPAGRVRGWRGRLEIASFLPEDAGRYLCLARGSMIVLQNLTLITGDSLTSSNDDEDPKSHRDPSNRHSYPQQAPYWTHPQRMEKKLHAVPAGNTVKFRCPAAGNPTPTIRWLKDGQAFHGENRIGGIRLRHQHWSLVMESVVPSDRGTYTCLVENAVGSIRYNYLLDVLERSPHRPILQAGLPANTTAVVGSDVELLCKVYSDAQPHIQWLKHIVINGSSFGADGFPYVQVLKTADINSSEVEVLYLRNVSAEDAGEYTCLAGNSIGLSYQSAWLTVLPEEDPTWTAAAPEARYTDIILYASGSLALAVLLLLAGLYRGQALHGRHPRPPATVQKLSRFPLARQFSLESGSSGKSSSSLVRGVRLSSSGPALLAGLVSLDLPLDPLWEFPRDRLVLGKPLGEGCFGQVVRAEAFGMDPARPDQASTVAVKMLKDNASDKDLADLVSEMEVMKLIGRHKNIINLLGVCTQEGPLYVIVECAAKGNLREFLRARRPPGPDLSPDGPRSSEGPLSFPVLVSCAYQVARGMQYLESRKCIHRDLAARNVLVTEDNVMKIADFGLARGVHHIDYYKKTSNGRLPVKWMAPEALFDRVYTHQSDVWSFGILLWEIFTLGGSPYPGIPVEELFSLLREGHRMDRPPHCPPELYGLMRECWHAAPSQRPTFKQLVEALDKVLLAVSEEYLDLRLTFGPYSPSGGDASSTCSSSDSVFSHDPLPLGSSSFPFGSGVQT
T3 sequence (P22607 whole entry, change not shown): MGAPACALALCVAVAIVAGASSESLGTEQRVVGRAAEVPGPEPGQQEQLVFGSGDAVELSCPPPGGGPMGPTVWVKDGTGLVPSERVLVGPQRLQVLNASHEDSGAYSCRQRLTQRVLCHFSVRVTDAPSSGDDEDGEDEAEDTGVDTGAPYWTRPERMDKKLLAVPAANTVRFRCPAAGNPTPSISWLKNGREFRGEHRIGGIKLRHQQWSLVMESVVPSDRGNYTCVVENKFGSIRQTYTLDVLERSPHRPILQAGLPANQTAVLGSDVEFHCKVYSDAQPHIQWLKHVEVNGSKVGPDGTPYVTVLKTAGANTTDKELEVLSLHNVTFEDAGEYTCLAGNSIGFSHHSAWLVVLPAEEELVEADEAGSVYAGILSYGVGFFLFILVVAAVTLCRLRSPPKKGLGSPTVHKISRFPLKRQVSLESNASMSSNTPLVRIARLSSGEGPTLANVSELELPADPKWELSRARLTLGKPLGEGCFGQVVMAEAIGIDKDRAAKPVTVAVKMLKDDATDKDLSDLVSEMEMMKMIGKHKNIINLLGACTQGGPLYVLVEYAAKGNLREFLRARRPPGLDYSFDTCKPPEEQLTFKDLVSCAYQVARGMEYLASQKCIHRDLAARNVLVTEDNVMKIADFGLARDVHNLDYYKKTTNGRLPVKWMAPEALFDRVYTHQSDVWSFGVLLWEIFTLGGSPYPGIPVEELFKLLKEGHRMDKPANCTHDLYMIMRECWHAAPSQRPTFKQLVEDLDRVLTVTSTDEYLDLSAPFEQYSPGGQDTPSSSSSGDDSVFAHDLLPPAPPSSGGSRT
T2 sequence (P11362 whole entry, change not shown): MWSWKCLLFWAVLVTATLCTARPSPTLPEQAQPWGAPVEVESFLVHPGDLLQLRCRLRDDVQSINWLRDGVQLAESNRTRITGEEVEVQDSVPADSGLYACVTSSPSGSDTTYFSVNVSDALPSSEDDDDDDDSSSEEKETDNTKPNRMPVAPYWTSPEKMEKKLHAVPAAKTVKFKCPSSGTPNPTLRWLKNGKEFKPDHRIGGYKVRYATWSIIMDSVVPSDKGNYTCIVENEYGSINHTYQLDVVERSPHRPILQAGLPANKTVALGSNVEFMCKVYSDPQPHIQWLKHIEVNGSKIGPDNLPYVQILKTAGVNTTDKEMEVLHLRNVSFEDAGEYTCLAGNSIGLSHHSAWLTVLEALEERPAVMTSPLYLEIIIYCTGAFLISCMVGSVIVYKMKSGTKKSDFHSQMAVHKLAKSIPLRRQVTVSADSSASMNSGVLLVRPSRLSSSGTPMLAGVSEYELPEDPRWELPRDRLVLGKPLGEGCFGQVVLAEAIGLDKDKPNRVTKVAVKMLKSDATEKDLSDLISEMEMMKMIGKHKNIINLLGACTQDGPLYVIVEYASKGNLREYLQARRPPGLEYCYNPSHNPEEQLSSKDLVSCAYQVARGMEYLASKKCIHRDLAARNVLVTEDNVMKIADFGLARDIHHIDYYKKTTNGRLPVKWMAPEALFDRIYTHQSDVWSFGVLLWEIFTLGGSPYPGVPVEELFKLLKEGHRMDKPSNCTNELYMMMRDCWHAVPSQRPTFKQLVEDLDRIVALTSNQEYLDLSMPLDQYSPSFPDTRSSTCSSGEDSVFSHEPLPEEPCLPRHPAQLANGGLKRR
Chain of FGFR4 (h) (P22455 22-802): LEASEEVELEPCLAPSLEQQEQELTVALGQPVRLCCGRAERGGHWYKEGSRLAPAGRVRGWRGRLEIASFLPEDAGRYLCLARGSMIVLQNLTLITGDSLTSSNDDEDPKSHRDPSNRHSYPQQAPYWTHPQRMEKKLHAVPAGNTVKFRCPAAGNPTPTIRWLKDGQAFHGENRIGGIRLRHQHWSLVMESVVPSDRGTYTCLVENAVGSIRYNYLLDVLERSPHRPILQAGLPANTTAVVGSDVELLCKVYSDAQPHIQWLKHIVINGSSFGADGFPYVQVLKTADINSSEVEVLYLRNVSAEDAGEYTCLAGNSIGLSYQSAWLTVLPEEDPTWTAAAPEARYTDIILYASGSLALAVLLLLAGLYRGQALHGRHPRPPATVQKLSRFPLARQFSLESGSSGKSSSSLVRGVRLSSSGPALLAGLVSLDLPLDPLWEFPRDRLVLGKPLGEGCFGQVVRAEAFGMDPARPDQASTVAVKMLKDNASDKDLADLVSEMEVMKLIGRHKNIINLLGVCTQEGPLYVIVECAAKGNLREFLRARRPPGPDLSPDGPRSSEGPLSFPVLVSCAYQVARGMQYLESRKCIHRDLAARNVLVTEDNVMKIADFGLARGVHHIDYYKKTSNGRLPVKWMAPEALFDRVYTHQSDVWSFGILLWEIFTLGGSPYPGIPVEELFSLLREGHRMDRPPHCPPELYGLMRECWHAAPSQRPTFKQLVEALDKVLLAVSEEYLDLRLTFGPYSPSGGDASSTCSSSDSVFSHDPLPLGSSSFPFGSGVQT
Chain of FGFR1 (h) (P11362 22-822): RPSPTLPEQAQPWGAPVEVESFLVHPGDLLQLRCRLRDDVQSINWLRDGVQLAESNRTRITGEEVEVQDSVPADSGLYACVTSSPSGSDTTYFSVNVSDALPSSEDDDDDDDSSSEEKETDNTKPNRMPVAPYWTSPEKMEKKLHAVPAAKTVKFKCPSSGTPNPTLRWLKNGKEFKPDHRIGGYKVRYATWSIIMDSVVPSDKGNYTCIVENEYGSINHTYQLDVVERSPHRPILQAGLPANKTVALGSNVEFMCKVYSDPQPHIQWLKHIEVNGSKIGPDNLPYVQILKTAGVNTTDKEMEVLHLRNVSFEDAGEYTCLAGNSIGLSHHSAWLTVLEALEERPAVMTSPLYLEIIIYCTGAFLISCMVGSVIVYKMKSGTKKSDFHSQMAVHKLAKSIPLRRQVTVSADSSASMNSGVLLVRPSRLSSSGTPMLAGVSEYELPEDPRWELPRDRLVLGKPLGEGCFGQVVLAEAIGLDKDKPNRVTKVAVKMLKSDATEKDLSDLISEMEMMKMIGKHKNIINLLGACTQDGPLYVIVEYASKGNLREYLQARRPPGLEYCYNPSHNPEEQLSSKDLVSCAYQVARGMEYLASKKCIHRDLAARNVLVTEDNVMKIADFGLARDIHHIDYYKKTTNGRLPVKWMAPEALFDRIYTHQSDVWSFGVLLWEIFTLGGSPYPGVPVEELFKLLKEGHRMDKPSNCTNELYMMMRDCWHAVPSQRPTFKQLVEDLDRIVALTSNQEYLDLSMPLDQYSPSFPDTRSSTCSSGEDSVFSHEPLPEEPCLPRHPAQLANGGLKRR

Regarding `COc1cc(OC)cc(N(CCO)c2ccc3ncc(-c4cnn(C)c4)nc3n2)c1` [Compound 21], the IC50 was 0.794 nM at FGFR3 (h); 5.01 nM against FGFR4 (h); 3.98 nM on FGFR2 (h) (setting [7]); greater than 10000 nM in assay [2] (setting [8]); greater than 10000 nM in assay [5] (setting [8]); 63.1 nM at KDR (h). Moreover, the IC50 at FGFR1 (h) was 2 nM. For the same compound, the “BAF3-FGFR4 pIC50” value in assay [1] stood at 6.69. Further, in assay [3], the “BAF3-KDR (MIN IL3) pIC50” value came out at 5.6. The “BAF3-FGFR1 (MIN IL3) pIC50” value in [4] was 7.3. For the same compound, in assay [6], the “BAF3-FGFR3 (MIN IL3) pIC50” value stood at 7.3.

As to `COc1cc(OC)cc(N(CCNC(C)C)c2ccc3ncc(-c4cnn(C)c4)nc3n2)c1` [Compound 1], the IC50 at FGFR3 (h) is 5.01 nM; against FGFR4 (h), 25.1 nM; on FGFR2 (h) (FGFR 2 pIC50, enzymatic assay) it was 25.1 nM; in [2] it was greater than 10000 nM; in assay [5], greater than 10000 nM; at KDR (h) it was 251 nM. For the same compound, the IC50 at FGFR1 (h) is 5.01 nM. In addition, the “BAF3-FGFR4 pIC50” value in [1] is roughly 7.06. In addition, the “BAF3-KDR (MIN IL3) pIC50” value in assay [3] amounted to 5.6. In [4], the “BAF3-FGFR1 (MIN IL3) pIC50” value turned out to be 8.5. The “BAF3-FGFR3 (MIN IL3) pIC50” value in assay [6] is given as 8.1.

`COc1cc(OC)c(F)c(N(CCNC(C)C)c2ccc3ncc(-c4cnn(C)c4)nc3n2)c1` [Compound 2]: the IC50 on FGFR3 (h) is 3.16 nM; on FGFR4 (h) it was 7.94 nM; on FGFR2 (h) (setting [7]), 5.01 nM; in assay [2], greater than 10000 nM; in [5] it was greater than 10000 nM; on KDR (h), 79.4 nM. Also, on FGFR1 (h), the IC50 is 2 nM. The “BAF3-FGFR4 pIC50” value in assay [1] is 7.64. In assay [3], the “BAF3-KDR (MIN IL3) pIC50” value was determined as 6.2. Further, in assay [4], the “BAF3-FGFR1 (MIN IL3) pIC50” value came to 8.3. Further, the “BAF3-FGFR3 (MIN IL3) pIC50” value in assay [6] was 8.0.

Take `COc1cc(OC)c(F)c(/N=c2\ccc3ncc(-c4cnn(C)c4)nc3n2CCNC(C)C)c1F` [Compound 6]: the IC50 at FGFR3 (h) is 3.16 nM; at FGFR4 (h), 5.01 nM; at FGFR2 (h) (setting [7]) it was 5.01 nM; in assay [2] (setting [8]), greater than 10000 nM; in [5] (setting [8]), greater than 10000 nM; on KDR (h) it was 50.1 nM. Besides, the IC50 on FGFR1 (h) is 1 nM. The “BAF3-KDR (MIN IL3) pIC50” value in [3] is reported as 5.7. Further, the “BAF3-FGFR1 (MIN IL3) pIC50” value in [4] is 8.0. For the same compound, the “BAF3-FGFR3 (MIN IL3) pIC50” value in assay [6] came out at 7.6.

As to `COc1cc(OC)cc(N(CC(O)C(F)(F)F)c2ccc3ncc(-c4cnn(C)c4)nc3n2)c1` (stereo not shown) [Compound 8], the IC50 at FGFR3 (h) is 2 nM; at FGFR4 (h), 3.16 nM; on FGFR2 (h) (setting [7]), 6.31 nM; in [2] (setting [8]), greater than 10000 nM; in assay [5] (setting [8]), greater than 10000 nM; at KDR (h) it was 126 nM. Besides, the IC50 at FGFR1 (h) is 1.26 nM. The “BAF3-FGFR4 pIC50” value in [1] is reported as 6.66. Also, the “BAF3-KDR (MIN IL3) pIC50” value in assay [3] is listed as 5.3. The “BAF3-FGFR1 (MIN IL3) pIC50” value in assay [4] came to 7.6. For the same compound, in assay [6], the “BAF3-FGFR3 (MIN IL3) pIC50” value is 7.6.

As to `COc1cc(OC)cc(N(Cc2ncccn2)c2ccc3ncc(-c4cnn(C)c4)nc3n2)c1` [Compound 12], the IC50 at FGFR3 (h) was 2.51 nM; against FGFR4 (h), 12.6 nM; on FGFR2 (h) (setting [7]), 3.98 nM; in assay [2] (setting [8]), greater than 10000 nM; in [5] (setting [8]), greater than 10000 nM; on KDR (h), 39.8 nM. Also, the IC50 on FGFR1 (h) was 1.58 nM. For the same compound, the “BAF3-FGFR4 pIC50” value in [1] amounted to 6.26. Moreover, the “BAF3-KDR (MIN IL3) pIC50” value in [3] is given as 5.5. Also, in assay [4], the “BAF3-FGFR1 (MIN IL3) pIC50” value worked out at 7.3. For the same compound, in assay [6], the “BAF3-FGFR3 (MIN IL3) pIC50” value is listed as 7.1.

Take `COc1cc(/N=c2\ccc3ncc(-c4cnn(C)c4)nc3n2CCCO)cc(OC)c1` [Compound 19]: the IC50 on FGFR3 (h) is 0.316 nM; against FGFR4 (h), 0.398 nM; at FGFR2 (h) (setting [7]), 1.26 nM; in [2] (setting [8]) it was greater than 10000 nM; in [5] (setting [8]) it was greater than 10000 nM; on KDR (h), 5.01 nM. Besides, on FGFR1 (h), the IC50 is 0.398 nM. Besides, the “BAF3-KDR (MIN IL3) pIC50” value in assay [3] is 6.4. Moreover, in assay [4], the “BAF3-FGFR1 (MIN IL3) pIC50” value amounted to 8.0. Further, the “BAF3-FGFR3 (MIN IL3) pIC50” value in assay [6] is 8.0.

For `COc1cc(OC)c(F)c(N(Cc2ncccn2)c2ccc3ncc(-c4cnn(C)c4)nc3n2)c1F` [Compound 11], the IC50 at FGFR3 (h) is 7.08 nM; on FGFR4 (h), 20 nM; at FGFR2 (h) (setting [7]) it was 50.1 nM; in assay [2] (setting [8]), greater than 10000 nM; in assay [5] (setting [8]), greater than 10000 nM; at KDR (h) it was 398 nM. Further, on FGFR1 (h), the IC50 is 50.1 nM. Also, the “BAF3-FGFR4 pIC50” value in assay [1] is reported as roughly 7.02. The “BAF3-KDR (MIN IL3) pIC50” value in assay [3] was found to be 6.3. In addition, in [4], the “BAF3-FGFR1 (MIN IL3) pIC50” value is listed as 7.4.
